Marks after values point to notes of the source that are not given here.
Tests used:
[1] = system: human rheumatoid arthritis (RA) synoviocytes; experiment: TNF-alpha release from human rheumatoid arthritis synoviocytes stimulated with interferon-gamma and anti-CD40 antibody; conditions: 48 hour period
Method: Concentrations of TNF-alpha are then measured in tissue culture supernatants by multiplex immunoassay.

[2] = system: LPS-Induced Cytokine Release; experiment: LPS-induced cytokine release in mice (Luminex); type: in vivo, female Balb/c mice; conditions: 30 min before LPS 1 mg/kg IP, serum 2 hr post-LPS
Source text: Data were summarized as percent reduction from vehicle-treated controls (n = 8/group). (*p<0.05 vs. vehicle; unpaired t-test).

LPS-induced TNF release = experiment: LPS-induced serum TNF-alpha in mice (ELISA); type: in vivo, female Balb/c mice; conditions: 3 and 10 mg/kg SC, 30 min before LPS 1 mg/kg IP, serum 2 hours post-LPS
Method: FIG. 5 Reduction in LPS-induced TNF release in Mice Pretreated with SC CR845 at 1, 3 and 10 mg/kg; and separately showing a comparison of the effect of prednisone as compared with vehicle alone.
Thirty minutes later, mice were injected IP with the bacterial lipopolysaccharide (LPS, 1 mg/kg) and serum samples collected 2 hours post-LPS treatment (n = 8/group). TNF-alpha levels in serum were determined by ELISA.

[3] = system: Human monocyte-derived macrophages; experiment: Cytokine release from LPS/IFN-γ stimulated human monocyte-derived macrophages (multiplex immunoassay); type: cell-based
Method: Human monocyte-derived macrophages were stimulated with lipopolysaccharide (LPS) and interferon gamma (IFN-γ) in the presence and absence of CR845 or interleukin-10 (IL-10; 10 ng/mL). Cytokine release in the 18-hour supernatants was measured by multiplex immunoassay (N=4 donors per condition, with assays run in triplicate), with results expressed as mean cytokine release (± SEM) following stimulation with LPS and IFN-γ. […] The minimum effective concentration was 2.0 nM, which was the lowest concentration tested (see Table 1).
Statistical comparisons: *, P<0.05; **, P<0.01; ***, P<0.001 compared with LPS/IFN-γ alone; ##, P<0.001 compared with LPS/IFN-γ + CR845 at 50 nM §, P<0.05 compared with LPS/IFN-γ + CR845 at 50 nM; ¶, P<0.005 compared with LPS/IFN-γ; ¶¶, P<0.001 compared with LPS/IFN-γ

[4] = system: carrageenan-induced paw swelling; experiment: Carrageenan-induced paw edema in rats; type: in vivo, male SD rats
Method: FIG. 6: Intravenous CR845 Produces Dose-Dependent Inhibition of Carrageenan-Induced Paw Edema Formation in Rats: Chart showing paw volume after administration of vehicle alone, or vehicle plus 0.1, 0.3 or 1.0 mg/kg CR845.
In a rat model of inflammatory disease, intraplantar injection of carrageenan in one hind paw is commonly used to produce acute inflammation, resulting in the swelling of the inoculated paw (Stein, Millan et al. 1988). Animals were administered CR845 IV (tail vein, 1 mL/kg) 30 min prior to intraplantar carrageenan administration (100 µL 2% carrageenan into left hind paw; n=6/group). Paw volumes were assessed 3.5 hr post treatment (i.e., 3 hr post-carrageenan injection).

[5] = LPS/IFNγ stimulated, CR845 50 nM, 18-hour supernatant, mean (SEM)
[6] = LPS/IFNγ stimulated, nor-BNI 10 nM alone, mean (SEM)

## CC(C)C[C@@H](NC(=O)[C@@H](Cc1ccccc1)NC(=O)[C@H](N)Cc1ccccc1)C(=O)N[C@H](CCCCN)C(=O)N1CCC(N)(C(=O)O)CC1 [CR845, D-Phe-D-Phe-D-Leu-D-Lys-[ω(4-aminopiperidine-4carboxylic acid)]-OH]
[1]; 0.1 nM
  TNF-alpha release (CD-40/interferon-gamma stimulated release standardized to 100): 20
[1]; 0.3 nM
  TNF-alpha release (CD-40/interferon-gamma stimulated release standardized to 100): -25
[2]; CR845 10 mg/kg SC
  GM-CSF % Inhibition: 7%
  IL-1α % Inhibition: -37%
  IL-1β % Inhibition: 26* %
  IL-2 % Inhibition: 23* %
  IL-4 % Inhibition: 21%
  IL-6 % Inhibition: -10%
  IL-10 % Inhibition: 26%
  IL-12 (p40/p70) % Inhibition: 23* %
  MCP-1 % Inhibition: -11%
  MIP-1α % Inhibition: 19%
  MIP-1β % Inhibition: 19* %
  TNFα % Inhibition: 47* %
LPS-induced TNF release
  serum TNF-alpha suppression: dose-dependent suppression of TNF-alpha that is statistically significant
[3]; LPS/IFNγ stimulated, CR845 10 nM, 18-hour supernatant, mean (SEM)
  IL-6 release: 398.0 (108.4) pg/mL
[3]; [5]
  IL-6 release: 563.7 (53.9) pg/mL
  IL-8 release: 1211 (56.7) pg/mL
[3]; lowest concentration tested
  minimum effective concentration for reduction of cytokine secretion: 2.0 nM
[3]; primary human macrophages, vs. vehicle
  secretion of TNF, IL-1β, IL-6, IL-8 and GCSF following stimulation with LPS and IFN-γ: significantly reduced
[4]; IV 30 min prior to carrageenan, paw volume at 3.5 hr post-injection
  minimum effective IV dose for reduction of carrageenan-induced paw swelling: 0.3 mg/kg
[4]; IV, 0.1, 0.3 or 1.0 mg/kg, vs. vehicle
  carrageenan-induced paw swelling: significantly reduces carrageenan-induced paw swelling

## C[C@]12C=CC(=O)C=C1CC[C@@H]1[C@@H]2[C@@H](O)C[C@@]2(C)[C@H]1CC[C@]2(O)C(=O)CO [Prednisolone, prednisolone]
[2]; Prednisolone 3 mg/kg SC
  IL-1α % Inhibition: 50* %
  IL-1β % Inhibition: 39* %
  IL-2 % Inhibition: 24* %
  IL-4 % Inhibition: 41* %
  IL-6 % Inhibition: -2%
  IL-10 % Inhibition: 59* %
  IL-12 (p40/p70) % Inhibition: 45* %
  MCP-1 % Inhibition: -14%
  MIP-1α % Inhibition: 35* %
  MIP-1β % Inhibition: 19* %
  TNFα % Inhibition: 64* %

## CCCC1O[C@@H]2C[C@H]3[C@@H]4CCC5=CC(=O)C=C[C@]5(C)[C@H]4[C@@H](O)C[C@]3(C)[C@]2(C(=O)CO)O1 (stereo partly shown) [budesonide]
[1]; positive control, concentration not given
  TNF-alpha release (CD-40/interferon-gamma stimulated release standardized to 100): -25

## Oc1ccc2c3c1O[C@H]1c4[nH]c5c(c4C[C@@]4(O)[C@@H](C2)N(CC2CC2)CC[C@]314)C[C@@]1(O)[C@H]2Cc3ccc(O)c4c3[C@@]1(CCN2CC1CC1)[C@H]5O4 [nor-BNI]
[3]; [6]
  G-CSF release: 1214 (29.9) pg/mL
  IL-1 release: 39.9 (1.1) pg/mL
  IL-6 release: 803.9 (0.6) pg/mL
  IL-8 release: 1595 (13.3) pg/mL
  TNF release: 7186 (174.8) pg/mL
[3]; selective kappa opioid antagonist added to CR845
  effect of nor-BNI on the cytokine-reducing effect of CR845: blocked

From patent US20230321265A1, “KAPPA OPIOID RECEPTOR AGONIST-THERAPEUTIC ANTIGEN BINDING PROTEIN CONJUGATE (KTAC) COMPOUNDS” (Cara Therapeutics, Inc., priority 2020, published 2023)
